According to US5593970A, “Heterocyclic anthracycline analogs” (priority 1994, dated 1997):
Entries after “also recorded” stand apart in the source; their conditions may differ.

Experiments:
HT29 = experiment: Microculture tetrazolium assay; format: cell-based; conditions: Homo sapiens, HT-29, HT29; read-out: IC50
LOX = experiment: Microculture tetrazolium assay; format: cell-based; conditions: read-out: IC50
LS180 = experiment: Soft agar colony formation disk diffusion assay; format: cell-based, human
Outline: (§1)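 Plate cells in an upper 0.4% agar layer over a 0.8% agar base, then add compound on a 6.5 mm disk one-third from the dish edge. Incubate 10–20 days at 37 °C, 5% CO2. Measure the colony-free zone around the disk with a calibrated micrometer.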

MCF7 = experiment: Soft agar colony formation disk diffusion assay; format: cell-based, human
Outline: as §1

BE-1 = experiment: Soft agar colony formation disk diffusion assay; format: cell-based, human
Outline: as §1

MCF7/ADR = experiment: Soft agar colony formation disk diffusion assay; format: cell-based, human
Outline: as §1

tumor cell lines = experiment: Tumor clonogenic assay, overall; format: cell-based
Source text: For the IN VITRO test, we chose a tumor clonogenic assay which measures the ability of tumoral cells to form colonies (multicellular growth units) as a result of cell division in semisolid agar support (2,3). A more elaborate version of this fundamental assay, the soft agar colony formation disk diffusion assay was used. This assay defines the relative activity of one particular drug versus a tumoral cell line type. The effect of the test drug against tumoral cells could be measured by its inhibitory capacity against colony formation after the delivery of the compound, in different concentrations on an filter disk(4).
A modified technique of this assay was used in order to investigate the antiproliferative activity of candidate compounds. Tumoral cells from solid tumors and ascitic lines were plated separately in a two layer agar matrix. Cell lines to be tested were suspended in an upper layer of 0.4% Noble agar (Difco#00142-01) in RPMI-1066 (Gibco#3201875) at a yield varying between 10^4 to 2×10^5 cells per 60 mm Petri dish. Plating efficiency was determined for each line in order to achieve an optimal number of colonies per dish. Plates were examined before drug administration to confirm a uniform dispersion of single cells. The bottom layer consisted of 0.8% Noble agar, 0.8% Tryptic Soy Broth (difco#0037001)in CMRL-1066/Fischer's. The bottom layers were used within 2 and 9 days of preparation. Plated dishes (bottom layer of agar, upper layer of cells and administered drug were incubated in humidified atmosphere at 37° C., 5% CO2 for 10-20 days depending upon the time necessary to observe adequate colonies (defined as a cell aggregate of more than 50 cells) both control and drug inhibited. Drugs were administered on a paper filter disk (Whatman No. 1) of 6.5 mm diameter placed on the upper layer at 1/3 distance from the edge of the dish. The anti-clonogenic activity of the compounds was measured as the zone of inhibition from the disk edge to the most proximal colonies. This zone of inhibition was checked on an inverted microscope (40×) and was measured with a micrometer mounted in the eyepiece. The ocular micrometer was calibrated with a stage micrometer set for a particular combination of ocular and objective lenses.
200 units of activity are equivalent to 6.5 mm distance from the disk edge to the first colonies (5). […] We made a modification of the initial technique by not plating a solid tumor and a leukemia simultaneously in the same Petri dish. Anti-clonogenic tests performed on leukemia cell line have helped in the discovery of the majority of current clinically used cytostatic drugs. Our tests on solid tumor lines (animal or human) may help define active compounds with solid tumor specificity. This specific activity would be indicated by a higher level of cloning inhibition in solid tumors versus leukemias (6).

Ovarian = experiment: NCI assay, average per cancer type; conditions: Ovarian
SC Lung = experiment: NCI assay, average per cancer type; conditions: SC Lung
Colon = experiment: NCI assay, average per cancer type; conditions: Colon
CNS = experiment: NCI assay, average per cancer type; conditions: CNS
Renal = experiment: NCI assay, average per cancer type; conditions: Renal
Melanoma = experiment: NCI assay, average per cancer type; conditions: Melanoma

Molecule	IC50 (HT29)	IC50 (LOX)	zone of inhibition (LS180; 10 μg/DISK)	zone of inhibition (LS180; 100 μg/DISK)	zone of inhibition (MCF7; 10 μg/DISK)	zone of inhibition (MCF7; 100 μg/DISK)	zone of inhibition (BE-1; 10 μg/DISK)	zone of inhibition (BE-1; 100 μg/DISK)	zone of inhibition (MCF7/ADR; 10 μg/DISK)	zone of inhibition (MCF7/ADR; 100 μg/DISK)	activity and specificity in words (tumor cell lines)	Average LOG10 GI50 (Ovarian)	Average LOG10 GI50 (SC Lung)	Average LOG10 GI50 (Colon)	cross resistance with adriamycin, MCF7/ADR vs MCF7 (MCF7/ADR)	Average LOG10 GI50 (CNS)	Average LOG10 GI50 (Renal)	Average LOG10 GI50 (Melanoma)
COC(=O)[C@@H]1CC2=C(C(=O)c3c(cc4ccccc4c3O)C2=O)[C@@H](O[C@H]2C[C@H](NC(=O)C(F)(F)F)[C@H](O)[C@H](C)O2)O1 [BCH-691, (1'S,1R,3S)-Methyl-{11-hydroxy-1-(2',3',6'-trideoxy-3'-trifluoroacetamido-4'-hydroxy-L-lyxoheoxpyranose)-5,12-dioxo-3,4,5,12-tetrahydroanthraceno[2,3-c]pyran-3-yl}formate]	301 nM	1370 nM	148.5 ± 4.9 Zone Units	287.0 ± 80.3 Zone Units	186.5 ± 4.9 Zone Units	417.5 ± 99.7 Zone Units	55.0 ± 10.0 Zone Units	155.5 ± 50.3 Zone Units	115.5 ± 9.1 Zone Units	213.5 ± 43.1 Zone Units	most active; also recorded: Good broad spectrum activity							
Methyl(11-hydroxy-5,12-dioxo-3,4,5,12-tetrahydroanthraceno[2,3-c]pyran-3-yl)ketone and Methyl(5-hydroxy-5,12-dioxo-3,4,5,12-tetrahydroanthraceno[2,3-c]pyran-3-yl)ketone [BCH-687]			152.5 ± 30.5 Zone Units	233.8 ± 17.6 Zone Units	71.1 ± 9.3 Zone Units	152.5 ± 50.0 Zone Units	85.0 ± 44.2 Zone Units	162.6 ± 70.4 Zone Units	61.0 ± 6.1 Zone Units	140.0 ± 32.3 Zone Units	most active; also recorded: responded well	-4.94 ± 0.37 log molar	-5.09 ± 0.25 log molar	-4.95 ± 0.28 log molar	lack of cross resistance with adriamycin	-4.59 ± 0.16 log molar	-4.69 ± 0.23 log molar	-5.05 ± 0.27 log molar
